The structures appear in SMILES notation.

For this assay, the system named is YAP/TAZ-TEAD transcription. Briefly: Reporter gene assay for measuring the inhibition of YAP/TAZ-TEAD transcription (TEAD-responsive element luciferase reporter in Hek293T cells). It counts as cell-based. Particulars: Homo sapiens, HEK-293T, 24 hours incubation. As for the experimental part:
Hek293T cells are cultured in DMEM supplemented with 10% fetal bovine serum, Sodium pyruvate, Sodium bicarbonate, L-glutamine. The cells are harvested and transiently transfected with TEAD-responsive element luciferase reporter. Transfected cells are plated in 384-wells plate containing pre-diluted compounds. After 24 hours incubation at 37° C./5% CO2, assay plates were cooled down to RT and levelled to an equal volume per well, prior to the addition of 25 uL luciferase substrate SteadyLite (Perkin Elmer)/well. The plate was shaken for 10 min at 600 rpm, centrifuged for 1 min at 500 rpm and measured with an Envision reader (PerkinElmer). The amount of relative light units produced by the TEAD reporter is used to calculated percent of inhibition.
The percent of reporter inhibition was calculated in the presence of a positive control inhibitor (100% inhibition) versus a condition with the presence of the vehicle basal activity of the reporter (0% inhibition). The ability of a test compound to inhibit this activity was determined as: Percentage inhibition=[1−((RLU determined in the presence of vehicle−RLU determined for sample with test compound present) divided by (RLU determined in the presence of vehicle−RLU determined for sample with positive control inhibitor))]*100
The activities of the example compounds tested are depicted in the table below. The activity ranges A, B and C refer to EC50 values in the reporter gene assay as described as follows: “A”: EC50<1 μM; “B”: 1 μM s EC50≤20 μM and “C”: EC50>20 μM, NT=not tested.
Background: A reporter such as luciferase makes a cellular process visible.
`Cn1ccc(-c2cc(-c3ccccc3)ccc2NCCC(=O)O)n1` [compound 063, 3-((3-(1-methyl-1H-pyrazol-3-yl)-[1,1′-biphenyl]-4-yl)amino)propanoic acid] yielded an EC50 of under 1000 nM. In the case of `CNC(=O)CCNc1ccc(-c2ccccc2)cc1-c1ccn(C)n1` [compound 064, N-methyl-3-((3-(1-methyl-1H-pyrazol-3-yl)-[1,1′-biphenyl]-4-yl)amino)propanamide], the EC50 is under 1000 nM. To `CSCCNc1ccc(-c2ccccc2)cc1-c1ccn(Cc2cccnc2)n1` [compound 065, N-(2-(methylthio)ethyl)-3-(1-(pyridin-3-ylmethyl)-1H-pyrazol-3-yl)-[1,1′-biphenyl]-4-amine] belongs 1000 to 20000 nM. To `CS(=N)(=O)CCNc1ccc(-c2ccccc2)cc1-c1ccn(Cc2cccnc2)n1` (centres unmarked) [compound 066, imino(methyl)(2-((3-(1-(pyridin-3-ylmethyl)-1H-pyrazol-3-yl)-[1,1′-biphenyl]-4-yl)amino)ethyl)-λ^6-sulfanone] belongs under 1000 nM. On to `CNS(=O)(=O)CCN(C)c1ccc(-c2ccccc2)cc1-c1ccn(Cc2cccnc2)n1` [compound 067, N-methyl-2-(methyl(3-(1-(pyridin-3-ylmethyl)-1H-pyrazol-3-yl)-[1,1′-biphenyl]-4-yl)amino)ethane-1-sulfonamide], for which the EC50 is 1000 to 20000 nM. Regarding `O=S1(=O)CCC(Nc2ccc(-c3ccccc3)cc2-c2ccn(Cc3cccnc3)n2)CC1` [compound 068, 4-((3-(1-(pyridin-3-ylmethyl)-1H-pyrazol-3-yl)-[1,1′-biphenyl]-4-yl)amino)tetrahydro-2H-thiopyran-1,1-dioxide], the EC50 is 1000 to 20000 nM. To `O=S1(=O)CCC(Nc2cc(-c3ccccc3)cc(-c3ccn(Cc4cccnc4)n3)c2)CC1` [compound 069, 4-((5-(1-(pyridin-3-ylmethyl)-1H-pyrazol-3-yl)-[1,1′-biphenyl]-3-yl)amino)tetrahydro-2H-thiopyran 1,1-dioxide] belongs 1000 to 20000 nM. `c1ccc(-c2ccc(NC3CCCOC3)c(-c3ccn(Cc4cccnc4)n3)c2)cc1` (centres unmarked) [compound 070, N-(3-(1-(pyridin-3-ylmethyl)-1H-pyrazol-3-yl)-[1,1′-biphenyl]-4-yl)tetrahydro-2H-pyran-3-amine]: the EC50 was under 1000 nM. To `c1ccc(-c2cc(NC3CCCOC3)cc(-c3ccn(Cc4cccnc4)n3)c2)cc1` (centres unmarked) [compound 071, N-(5-(1-(pyridin-3-ylmethyl)-1H-pyrazol-3-yl)-[1,1′-biphenyl]-3-yl)tetrahydro-2H-pyran-3-amine] belongs 1000 to 20000 nM. To `O=C1CC(Nc2ccc(-c3ccccc3)cc2-c2ccn(Cc3cccnc3)n2)CCN1` (centres unmarked) [compound 072, 4-((3-(1-(pyridin-3-ylmethyl)-1H-pyrazol-3-yl)-[1,1′-biphenyl]-4-yl)amino)piperidin-2-one] belongs 1000 to 20000 nM; to `O=C1CC(Nc2cc(-c3ccccc3)cc(-c3ccn(Cc4cccnc4)n3)c2)CCN1` (centres unmarked) [compound 073, 4-((5-(1-(pyridin-3-ylmethyl)-1H-pyrazol-3-yl)-[1,1′-biphenyl]-3-yl)amino)piperidin-2-one], 1000 to 20000 nM; to `CNC(=O)CNc1ccc(-c2ccccc2)cc1-c1ccn(Cc2cccnc2)n1` [compound 074, N-methyl-2-((3-(1-(pyridin-3-ylmethyl)-1H-pyrazol-3-yl)-[1,1′-biphenyl]-4-yl)amino)acetamide], 1000 to 20000 nM. To `CNC(=O)CNc1cc(-c2ccccc2)cc(-c2ccn(Cc3cccnc3)n2)c1` [compound 076, N-methyl-2-((5-(1-(pyridin-3-ylmethyl)-1H-pyrazol-3-yl)-[1,1′-biphenyl]-3-yl)amino)acetamide] belongs 1000 to 20000 nM. In turn, `CCC(=O)NCCNc1ccc(-c2ccccc2)cc1-c1ccn(Cc2cccnc2)n1` [compound 077] registered an EC50 of under 1000 nM. Molecule `O=C(O)CNc1cc(-c2ccccc2)cc(-c2ccn(Cc3cccnc3)n2)c1` [compound 078, (5-(1-(pyridin-3-ylmethyl)-1H-pyrazol-3-yl)-[1,1′-biphenyl]-3-yl)glycine] yielded an EC50 of over 20000 nM. To `CNS(=O)(=O)CCC(=O)Nc1ccc(-c2ccccc2)cc1-c1ccn(Cc2cccnc2)n1` [compound 079, 3-(N-methylsulfamoyl)-N-(3-(1-(pyridin-3-ylmethyl)-1H-pyrazol-3-yl)-[1,1′-biphenyl]-4-yl)propanamide] belongs 1000 to 20000 nM.

With `C=CC(=O)Nc1ccc(-c2ccccc2)cc1-c1ccn(Cc2cccnc2)n1` [compound 080, N-(3-(1-(pyridin-3-ylmethyl)-1H-pyrazol-3-yl)-[1,1′-biphenyl]-4-yl)acrylamide], the EC50 lay in the range of 1000 to 20000 nM. To `N#CCC(=O)Nc1ccc(-c2ccccc2)cc1-c1ccn(Cc2cccnc2)n1` [compound 081, 2-cyano-N-(3-(1-(pyridin-3-ylmethyl)-1H-pyrazol-3-yl)-[1,1′-biphenyl]-4-yl)acetamide] belongs 1000 to 20000 nM; to `CNS(=O)(=O)CC(=O)Nc1ccc(-c2ccccc2)cc1-c1ccn(Cc2cccnc2)n1` [compound 082, 2-(N-methylsulfamoyl)-N-(3-(1-(pyridin-3-ylmethyl)-1H-pyrazol-3-yl)-[1,1′-biphenyl]-4-yl)acetamide], 1000 to 20000 nM; to `N#CCCNc1ccc(-c2ccccc2)cc1-c1ccn(Cc2cccnc2)n1` [compound 084, 3-((3-(1-(pyridin-3-ylmethyl)-1H-pyrazol-3-yl)-[1,1′-biphenyl]-4-yl)amino)propanenitrile], 1000 to 20000 nM. To `N#CCNc1ccc(-c2ccccc2)cc1-c1ccn(Cc2cccnc2)n1` [compound 085, 2-((3-(1-(pyridin-3-ylmethyl)-1H-pyrazol-3-yl)-[1,1′-biphenyl]-4-yl)amino)acetonitrile] belongs under 1000 nM; to `CNS(=O)(=O)CCNc1ccc(-c2cccc(C(F)(F)F)c2)cc1-c1ccn(Cc2cccnc2)n1` [compound 089], under 1000 nM; to `CNS(=O)(=O)CCNc1ccc(-c2cccc(OC)c2)cc1-c1ccn(Cc2cccnc2)n1` [compound 090, 2-((3′-methoxy-3-(1-(pyridin-3-ylmethyl)-1H-pyrazol-3-yl)-[1,1′-biphenyl]-4-yl)amino)-N-methylethane-1-sulfonamide], under 1000 nM. With `CNS(=O)(=O)CCNc1ccc(-c2cccc(Cl)c2)cc1-c1ccn(Cc2cccnc2)n1` [compound 091, 2-((3′-chloro-3-(1-(pyridin-3-ylmethyl)-1H-pyrazol-3-yl)-[1,1′-biphenyl]-4-yl)amino)-N-methylethane-1-sulfonamide], the EC50 is under 1000 nM. Take `CNS(=O)(=O)CCNc1ccc(-c2cc(F)ccc2F)cc1-c1ccn(Cc2cccnc2)n1` [compound 092, 2-((2′,5′-difluoro-3-(1-(pyridin-3-ylmethyl)-1H-pyrazol-3-yl)-[1,1′-biphenyl]-4-yl)amino)-N-methylethane-1-sulfonamide]: the EC50 is under 1000 nM. To `CNS(=O)(=O)CCNc1ccc(-c2cccnc2)cc1-c1ccn(Cc2cccnc2)n1` [compound 094, N-methyl-2-((4-(pyridin-3-yl)-2-(1-(pyridin-3-ylmethyl)-1H-pyrazol-3-yl)phenyl)amino)ethane-1-sulfonamide] belongs 1000 to 20000 nM; to `CNS(=O)(=O)CCNc1ccc(C2CCCCC2)cc1-c1ccn(Cc2cccnc2)n1` [compound 095, 2-((4-cyclohexyl-2-(1-(pyridin-3-ylmethyl)-1H-pyrazol-3-yl)phenyl)amino)-N-methylethane-1-sulfonamide], under 1000 nM; to `CNS(=O)(=O)CCNc1ccc(-c2ccn(C)n2)cc1-c1ccn(Cc2cccnc2)n1` [compound 096, N-methyl-2-((4-(1-methyl-1H-pyrazol-3-yl)-2-(1-(pyridin-3-ylmethyl)-1H-pyrazol-3-yl)phenyl)amino)ethane-1-sulfonamide], 1000 to 20000 nM. To `CNS(=O)(=O)CCNc1ccc(-c2ccc(C(F)F)cc2)cc1-c1ccn(Cc2cccnc2)n1` [compound 097, 2-((4′-(difluoromethyl)-3-(1-(pyridin-3-ylmethyl)-1H-pyrazol-3-yl)-[1,1′-biphenyl]-4-yl)amino)-N-methylethane-1-sulfonamide] belongs under 1000 nM.

Molecule `CNS(=O)(=O)CCNc1ccc(-c2ccc(OC(F)(F)F)cc2)cc1-c1ccn(Cc2cccnc2)n1` [compound 098, N-methyl-2-((3-(1-(pyridin-3-ylmethyl)-1H-pyrazol-3-yl)-4′-(trifluoromethoxy)-[1,1′-biphenyl]-4-yl)amino)ethane-1-sulfonamide] showed an EC50 of under 1000 nM. `CNS(=O)(=O)CCNc1ccc(-c2ccc(OC(F)F)cc2)cc1-c1ccn(Cc2cccnc2)n1` [compound 099, 2-((4′-(difluoromethoxy)-3-(1-(pyridin-3-ylmethyl)-1H-pyrazol-3-yl)-[1,1′-biphenyl]-4-yl)amino)-N-methylethane-1-sulfonamide]: the EC50 was under 1000 nM.

Consider `CNS(=O)(=O)CCNc1ccc(-c2ccc(S(F)(F)(F)(F)F)cc2)cc1-c1ccn(Cc2cccnc2)n1` [compound 100, 2-((4′-(2,2-difluoro-2-methyl-2l6-trifluoran-2-yl)-3-(1-(pyridin-3-ylmethyl)-1H-pyrazol-3-yl)-[1,1′-biphenyl]-4-yl)amino)-N-methylethane-1-sulfonamide], for which the EC50 was under 1000 nM.

The term EC50 denotes the midpoint of the concentration-response curve. A lower EC50 goes with a more potent agent.

(Values after patent US12552772B2, “2-pyrazole anilines and related analogs for inhibiting YAP/TAZ-TEAD” (KATHOLIEKE UNIVERSITEIT LEUVEN, priority 2021, dated 2026).)
